Each structure is given as a SMILES string.

In general, half-life refers to the time needed for the level to fall by half in the phase considered. As a reminder, the IC50 is the concentration that gives 50% inhibition. One may read the Cmax as the highest concentration seen after dosing. In general, Tmax refers to the time at which the peak concentration occurs.

Data set [1] in a line: Metabolic stability in mouse liver microsome assessed as half-life. Type of data set: ADME. The conditions noted are these: liver microsomes.
In data set [2] the target is T1, Steroid 21-hydroxylase (Homo sapiens, UniProt P08686).
T1 sequence (P08686 whole entry): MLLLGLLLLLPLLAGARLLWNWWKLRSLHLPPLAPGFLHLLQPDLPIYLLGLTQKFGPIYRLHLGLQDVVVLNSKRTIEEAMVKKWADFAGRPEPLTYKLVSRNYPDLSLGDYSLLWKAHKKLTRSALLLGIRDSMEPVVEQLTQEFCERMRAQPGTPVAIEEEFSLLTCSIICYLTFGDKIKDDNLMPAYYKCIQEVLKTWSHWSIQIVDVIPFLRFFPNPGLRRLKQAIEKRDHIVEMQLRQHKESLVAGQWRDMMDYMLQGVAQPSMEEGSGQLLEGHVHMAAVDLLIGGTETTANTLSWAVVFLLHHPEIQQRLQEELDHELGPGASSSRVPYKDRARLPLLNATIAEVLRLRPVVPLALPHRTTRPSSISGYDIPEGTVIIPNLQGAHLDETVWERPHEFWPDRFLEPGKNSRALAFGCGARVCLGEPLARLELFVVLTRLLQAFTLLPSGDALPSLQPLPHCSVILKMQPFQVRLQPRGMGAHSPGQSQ
The experiment in a line: Inhibition of human CYP21A2. Type of data set: ADME.

Data set [3] is described as follows: Inhibition of cynomolgus monkey CYP11B1. The data set is classed as ADME, Macaca fascicularis.
Data set [4] in a line: Cmax in cynomolgus monkey at 1 mg/kg, po. The data set is classed as ADME, organism-based, Macaca fascicularis. Details: dose 1 mg/kg, route po. The conditions noted are these: in vivo.
The target of data set [5] is T2, Steroid 17-alpha-hydroxylase/17,20 lyase (Macaca fascicularis, UniProt Q2XVA1).
T2 sequence (Q2XVA1 whole entry): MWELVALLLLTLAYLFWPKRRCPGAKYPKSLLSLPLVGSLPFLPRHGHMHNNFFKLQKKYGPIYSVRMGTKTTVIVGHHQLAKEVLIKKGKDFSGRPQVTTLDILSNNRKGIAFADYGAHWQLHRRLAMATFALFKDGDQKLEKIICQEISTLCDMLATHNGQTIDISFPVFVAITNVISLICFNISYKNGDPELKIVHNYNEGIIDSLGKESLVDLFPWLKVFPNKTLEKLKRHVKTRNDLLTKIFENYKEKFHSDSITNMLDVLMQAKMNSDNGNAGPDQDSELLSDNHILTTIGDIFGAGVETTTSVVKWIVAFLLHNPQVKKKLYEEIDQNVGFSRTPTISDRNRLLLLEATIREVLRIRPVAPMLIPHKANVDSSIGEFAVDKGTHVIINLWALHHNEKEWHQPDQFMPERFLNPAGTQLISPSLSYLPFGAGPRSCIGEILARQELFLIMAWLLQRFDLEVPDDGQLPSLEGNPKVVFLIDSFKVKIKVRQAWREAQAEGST
The experiment in a line: Inhibition of cynomolgus monkey CYP17A1. The data set is classed as ADME.

Data set [6] can be described thus: Volume of distribution at steady state in cynomolgus monkey at 1 mg/kg, iv. The conditions noted are these: in vivo, read-out: Vdss. The data set is classed as ADME, organism-based, Macaca fascicularis.
In data set [7] the target is T2, Steroid 17-alpha-hydroxylase/17,20 lyase. The experiment in a line: In vivo inhibition of CYP17A1 in cynomolgus monkey assessed as decrease in testosterone level in blood at 1 mg/kg, po measured upto 24 hrs relative to control. The arrangement: scale not given: the % may be the effect or the level left. The data set is classed as functional, organism-based.
For data set [8], the target named is T3, Steroid 17-alpha-hydroxylase/17,20 lyase (Homo sapiens, UniProt P05093).
T3 sequence (P05093 whole entry): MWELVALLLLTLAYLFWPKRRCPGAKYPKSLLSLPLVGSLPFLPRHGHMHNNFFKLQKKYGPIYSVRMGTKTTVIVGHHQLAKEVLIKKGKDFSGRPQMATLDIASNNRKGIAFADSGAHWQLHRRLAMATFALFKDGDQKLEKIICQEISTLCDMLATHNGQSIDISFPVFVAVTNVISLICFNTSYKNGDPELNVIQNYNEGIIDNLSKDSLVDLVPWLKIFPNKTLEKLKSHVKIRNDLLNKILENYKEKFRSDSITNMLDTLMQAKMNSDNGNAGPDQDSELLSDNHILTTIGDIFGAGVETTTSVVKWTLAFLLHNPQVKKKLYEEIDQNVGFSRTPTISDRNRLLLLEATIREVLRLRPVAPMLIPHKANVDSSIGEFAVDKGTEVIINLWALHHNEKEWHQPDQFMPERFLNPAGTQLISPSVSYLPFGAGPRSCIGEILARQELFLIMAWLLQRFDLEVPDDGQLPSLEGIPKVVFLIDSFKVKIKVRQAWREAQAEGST
The experiment in a line: Inhibition of human CYP17A1 hydroxylase activity. The data set is classed as ADME.

Data set [9] concerns the target Cytochrome P450 3A4 (Homo sapiens, UniProt P08684). The experiment in a line: Inhibition of recombinant human CYP3A4. Type of data set: ADME.
Data set [10] can be described thus: Permeability across apical to basolateral side in human Caco-2 cells. The data set is classed as ADME, cell-based. The conditions noted are these: read-out: permeability. (Caco-2 monolayers are a common model of the intestinal barrier.)
A short description of data set [11]: Tmax in cynomolgus monkey at 1 mg/kg, po. Type of data set: ADME, organism-based, Macaca fascicularis. The conditions noted are these: in vivo.
Data set [12] deals with T2, Steroid 17-alpha-hydroxylase/17,20 lyase. The experiment in a line: In vivo inhibition of CYP17A1 in cynomolgus monkey assessed as fold increase in progesterone level in blood at 1 mg/kg, po measured upto 24 hrs. The data set is classed as functional, organism-based.
A short description of data set [13]: Metabolic stability in human liver microsome assessed as half-life. Type of data set: ADME. The conditions noted are these: liver microsomes. Background: Liver microsomes are a subcellular fraction often used to study metabolism.
A short description of data set [14]: Metabolic stability in cynomolgus monkey liver microsomes assessed as parent compound remaining relative to control. The data set is classed as ADME, Macaca fascicularis, Microsome.
Data set [15] deals with T3, Steroid 17-alpha-hydroxylase/17,20 lyase. In words: Selectivity ratio for inhibition of human CYP17A1 hydroxylase activity to inhibition of human CYP17A1 lyase activity. Type of data set: ADME.
The target in data set [16] is T4, Nuclear receptor subfamily 1 group I member 2 (Homo sapiens, UniProt O75469).
T4 sequence (O75469 whole entry): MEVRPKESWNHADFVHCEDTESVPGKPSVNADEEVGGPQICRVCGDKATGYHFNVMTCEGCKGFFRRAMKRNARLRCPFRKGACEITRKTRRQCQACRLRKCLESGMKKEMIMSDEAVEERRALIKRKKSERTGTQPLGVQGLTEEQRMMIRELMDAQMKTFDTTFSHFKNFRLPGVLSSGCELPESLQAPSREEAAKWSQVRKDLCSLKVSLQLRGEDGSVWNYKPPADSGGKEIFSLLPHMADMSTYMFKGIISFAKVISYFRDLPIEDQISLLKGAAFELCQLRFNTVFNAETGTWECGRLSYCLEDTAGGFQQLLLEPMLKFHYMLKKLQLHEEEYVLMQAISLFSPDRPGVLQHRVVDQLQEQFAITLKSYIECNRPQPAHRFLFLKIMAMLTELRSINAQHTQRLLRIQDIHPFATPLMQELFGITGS
The experiment in a line: Inhibition of PXR (unknown origin).

Data set [17] deals with T2, Steroid 17-alpha-hydroxylase/17,20 lyase. In words: In vivo inhibition of CYP17A1 in cynomolgus monkey assessed as change in cortisol level in blood at 1 mg/kg, po measured upto 24 hrs. The data set is classed as functional, organism-based.
Data set [18] deals with Cytochrome P450 2C19 (Homo sapiens, UniProt P33261). In words: Inhibition of recombinant human CYP2C19. The data set is classed as ADME.
Data set [19] has as its target T2, Steroid 17-alpha-hydroxylase/17,20 lyase. The experiment in a line: Selectivity ratio of IC50 for inhibition of cynomolgus monkey CYP17A1 hydroxylase activity to IC50 for inhibition of cynomolgus monkey CYP17A1 lyase activity. The data set is classed as ADME.

Chain of Cytochrome P450 3A4 (P08684 whole entry): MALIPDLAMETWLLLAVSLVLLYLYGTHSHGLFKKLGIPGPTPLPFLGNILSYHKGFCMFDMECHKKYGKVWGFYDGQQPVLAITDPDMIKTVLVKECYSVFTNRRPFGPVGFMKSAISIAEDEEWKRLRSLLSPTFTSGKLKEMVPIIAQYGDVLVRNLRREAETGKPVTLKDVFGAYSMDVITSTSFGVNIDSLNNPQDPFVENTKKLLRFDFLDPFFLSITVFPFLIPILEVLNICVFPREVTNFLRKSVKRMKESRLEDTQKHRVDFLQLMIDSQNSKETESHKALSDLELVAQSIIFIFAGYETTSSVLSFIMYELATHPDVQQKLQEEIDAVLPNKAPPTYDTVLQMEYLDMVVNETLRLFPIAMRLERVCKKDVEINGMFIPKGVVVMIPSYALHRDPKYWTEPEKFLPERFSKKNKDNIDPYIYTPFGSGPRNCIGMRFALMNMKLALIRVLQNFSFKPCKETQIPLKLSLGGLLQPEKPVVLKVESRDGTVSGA
Chain of Cytochrome P450 2C19 (P33261 whole entry): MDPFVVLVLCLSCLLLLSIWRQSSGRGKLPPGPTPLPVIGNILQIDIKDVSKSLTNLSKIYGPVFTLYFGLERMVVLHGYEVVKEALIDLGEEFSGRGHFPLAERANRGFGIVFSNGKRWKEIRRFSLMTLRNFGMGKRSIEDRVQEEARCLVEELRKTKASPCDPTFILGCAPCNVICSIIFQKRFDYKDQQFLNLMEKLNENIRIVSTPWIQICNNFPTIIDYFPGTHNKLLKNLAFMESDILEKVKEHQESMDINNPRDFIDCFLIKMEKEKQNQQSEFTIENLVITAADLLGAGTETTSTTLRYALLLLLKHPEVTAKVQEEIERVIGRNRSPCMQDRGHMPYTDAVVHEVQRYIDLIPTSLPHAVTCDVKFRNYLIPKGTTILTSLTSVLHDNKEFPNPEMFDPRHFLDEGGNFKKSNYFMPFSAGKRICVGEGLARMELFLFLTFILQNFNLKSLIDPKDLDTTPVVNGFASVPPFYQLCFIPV

With `Nc1ncncc1-c1ccnc2c1cnn2-c1ccc(F)cc1`, the results for the half-life in data set [1] and in data set [13] were 0.583 h and greater than 2 h, respectively. The IC50 in [2] was greater than 10 µM; in [3], greater than 10 µM; in data set [5], 0.002 µM; in [8], 0.091 µM; in data set [9], 36 µM; in [16], greater than 50 µM. Also, the half-maximal inhibitory concentration (IC50) in data set [18] is greater than 40 µM. In addition, in data set [4], the peak level (Cmax) was 1550 nM. The Vd in data set [6] was 3.5 L/kg. Further, in [7], the Activity was determined as 83%. In addition, in data set [10], the Papp A→B was 28.2 ×10⁻⁶ cm/s. The Tmax in data set [11] was found to be 1 h. In data set [12], the “fold change (FC)” value is listed as 14. Further, in data set [14], the Stability was 96%. Besides, in [15], the Ratio is 11. In addition, in data set [17], the “inhibition (INH)” value is “Not Active”. Also, in data set [19], the “Ratio IC50” value is given as 5.

These data come from ChEMBL document CHEMBL5223109, “The discovery of BMS-737 as a potent, CYP17 lyase-selective inhibitor for the treatment of castration-resistant prostate cancer” (Bioorg Med Chem Lett, 2022).
